In patent US20090239894A1, “Stabilized aqueous solutions of ergoline compounds” (priority 2008, published 2009):
Like-named read-outs stand apart in the source and are kept apart here.

Tests used:
[1] = 60° C., one week, dark
Procedure: The additives used were propylene glycol and Cremophor ELP in concentrations between 1.00% and 10.00%.
The solutions were prepared by analogy with the procedure used in examples 1 and 2.
The solutions were stored in the dark in glass containers at 60° C. for one week.

[2] = propylene glycol as low-dose additive (less than 10%)
[3] = 9% propylene glycol; for Average area (percent of lisuride peak area relative to total peak area): no buffer
Procedure: An aqueous solution of lisuride hydrogen maleate which additionally contained 9% propylene glycol was investigated. The active ingredient concentration was adjusted to 2 mg per 3 mL. No buffer system was added. The remaining procedure included weighing 33.3 mg of the active ingredient into a scaled 50 mL flask, then adding the propylene glycol (4.5 g) and also adding 40 mL water. The flask was agitated for several minutes and then exposed to ultrasound until the active ingredient was completely dissolved. The flask was cooled to room temperature and topped off with double-distilled water up to the mark.
The solution was poured into transparent glass ampoules with a volume of 1 mL. These ampoules were sealed airtight and wrapped with aluminum foil to protect them from light. The ampoules were each stored at 6-8° C., 25° C. and 40° C.

[4] = Procedure: Solutions of lisuride hydrogen maleate with a concentration of 2 mg active ingredient per 3 mL solution were investigated with regard to their temperature-dependent stability. These solutions were buffered using a citrate buffer system, so that the pH value of the pure medium was adjusted to 5.1, 4.5 and 3.5. Aqueous solutions of citric acid monohydrate and trisodium citrate dihydrate (0.53 mM each) were prepared.
Suitable mixing of these solutions yielded aqueous buffer systems with a pH of 4.5 and/or 3.5. After 33.3 mg lisuride hydrogen maleate had been weighed out in a scaled 50 mL flask, 40 mL of the corresponding buffer medium was added. The flasks were agitated for several minutes and then exposed to ultrasound for several minutes until the active ingredient was completely dissolved. The solutions were cooled to room temperature and topped off to the mark with buffer medium.
In the case of the more strongly basic medium (pH 5.1), a supply solution was prepared, containing citric acid monohydrate (0.38 mM) and trisodium citrate dihydrate (0.68 mM). This was used to dissolve the active ingredient. In principle, double-distilled water was used to prepare the solutions.
The resulting solutions were stored under three different conditions: under refrigeration at 6 to 8° C., at room temperature (25° C.) and at an elevated temperature of 40° C. The solutions were stored in sealed glass ampoules which were wrapped with aluminum foil for protection from light. After suitable intervals of time, samples were analyzed by means of a specific reverse phase HPLC method with UV detection (running time 30 min, retention time of lisuride ˜13 min).

[5] = Solubility in water / phosphate-buffered solution (pH 7.4)
[6] = cited from earlier work

CCN(CC)C(=O)N[C@H]1C=C2c3cccc4[nH]cc(c34)C[C@H]2N(C)C1.O=C(O)/C=C\C(=O)O [lisuride hydrogen maleate]
degradation of the active ingredient ([1]; 1% Cremophor ELP): 14.3%
degradation of the active ingredient ([1]; 10% Cremophor ELP): 21.3%
remaining active ingredient content ([1]; propylene glycol): 92.5%
solubility of the active ingredient with propylene glycol [2]: improved solubility
discoloration of the solutions ([3]; elevated temperature): slight yellow discoloration was observed only after a storage time of 90 days
Average area (percent of lisuride peak area relative to total peak area) ([3]; 6-8° C., t 0 d): 99.80%
Average area (percent of lisuride peak area relative to total peak area) ([3]; 6-8° C., t 7 d): 99.79%
Average area (percent of lisuride peak area relative to total peak area) ([3]; 6-8° C., t 30 d): 99.67%
Average area (percent of lisuride peak area relative to total peak area) ([3]; 6-8° C., t 90 d): 99.52%
Average area (percent of lisuride peak area relative to total peak area) ([3]; 6-8° C., t 180 d): 99.36%
Average area (percent of lisuride peak area relative to total peak area) ([3]; 25° C., t 0 d): 99.80%
Average area (percent of lisuride peak area relative to total peak area) ([3]; 25° C., t 7 d): 99.79%
Average area (percent of lisuride peak area relative to total peak area) ([3]; 25° C., t 30 d): 99.46%
Average area (percent of lisuride peak area relative to total peak area) ([3]; 25° C., t 90 d): 99.15%
Average area (percent of lisuride peak area relative to total peak area) ([3]; 25° C., t 180 d): 98.35%
Average area (percent of lisuride peak area relative to total peak area) ([3]; 40° C., t 0 d): 99.80%
Average area (percent of lisuride peak area relative to total peak area) ([3]; 40° C., t 7 d): 99.33%
Average area (percent of lisuride peak area relative to total peak area) ([3]; 40° C., t 30 d): 97.59%
Average area (percent of lisuride peak area relative to total peak area) ([3]; 40° C., t 90 d): 94.06%
Average area (percent of lisuride peak area relative to total peak area) ([3]; 40° C., t 180 d): 89.76%
active ingredient decomposed ([3]; refrigeration, 180 days): approximately 0.4%
remaining active ingredient content in comparison with the initial concentration ([3]; room temperature, 180 days): 98.4%
active ingredient decomposed ([3]; storage at 40° C.): approximately 10%
stability compared with solutions without propylene glycol (Example 1) ([3]; 6-8° C., 25° C. and 40° C.): significantly more stable
Average area (percent of lisuride peak area relative to total peak area) ([4]; citrate buffer pH 3.5, 6-8° C., t 0 d): 99.87%
Average area (percent of lisuride peak area relative to total peak area) ([4]; citrate buffer pH 3.5, 6-8° C., t 7 d): 99.92%
Average area (percent of lisuride peak area relative to total peak area) ([4]; citrate buffer pH 3.5, 6-8° C., t 30 d): 99.80%
Average area (percent of lisuride peak area relative to total peak area) ([4]; citrate buffer pH 3.5, 6-8° C., t 90 d): 99.57%
Average area (percent of lisuride peak area relative to total peak area) ([4]; citrate buffer pH 3.5, 6-8° C., t 180 d): 99.22%
Average area (percent of lisuride peak area relative to total peak area) ([4]; citrate buffer pH 3.5, 25° C., t 0 d): 99.87%
Average area (percent of lisuride peak area relative to total peak area) ([4]; citrate buffer pH 3.5, 25° C., t 7 d): 99.89%
Average area (percent of lisuride peak area relative to total peak area) ([4]; citrate buffer pH 3.5, 25° C., t 30 d): 99.37%
Average area (percent of lisuride peak area relative to total peak area) ([4]; citrate buffer pH 3.5, 25° C., t 90 d): 98.70%
Average area (percent of lisuride peak area relative to total peak area) ([4]; citrate buffer pH 3.5, 25° C., t 180 d): 94.14%
Average area (percent of lisuride peak area relative to total peak area) ([4]; citrate buffer pH 3.5, 40° C., t 0 d): 99.87%
Average area (percent of lisuride peak area relative to total peak area) ([4]; citrate buffer pH 3.5, 40° C., t 7 d): 98.89%
Average area (percent of lisuride peak area relative to total peak area) ([4]; citrate buffer pH 3.5, 40° C., t 30 d): 90.41%
Average area (percent of lisuride peak area relative to total peak area) ([4]; citrate buffer pH 3.5, 40° C., t 90 d): 73.37%
Average area (percent of lisuride peak area relative to total peak area) ([4]; citrate buffer pH 3.5, 40° C., t 180 d): 69.91%
Average area (percent of lisuride peak area relative to total peak area) ([4]; citrate buffer pH 4.5, 6-8° C., t 0 d): 99.79%
Average area (percent of lisuride peak area relative to total peak area) ([4]; citrate buffer pH 4.5, 6-8° C., t 7 d): 99.88%
Average area (percent of lisuride peak area relative to total peak area) ([4]; citrate buffer pH 4.5, 6-8° C., t 30 d): 99.73%
Average area (percent of lisuride peak area relative to total peak area) ([4]; citrate buffer pH 4.5, 6-8° C., t 90 d): 99.75%
Average area (percent of lisuride peak area relative to total peak area) ([4]; citrate buffer pH 4.5, 6-8° C., t 180 d): 99.11%
Average area (percent of lisuride peak area relative to total peak area) ([4]; citrate buffer pH 4.5, 25° C., t 0 d): 99.79%
Average area (percent of lisuride peak area relative to total peak area) ([4]; citrate buffer pH 4.5, 25° C., t 7 d): 99.84%
Average area (percent of lisuride peak area relative to total peak area) ([4]; citrate buffer pH 4.5, 25° C., t 30 d): 99.26%
Average area (percent of lisuride peak area relative to total peak area) ([4]; citrate buffer pH 4.5, 25° C., t 90 d): 98.14%
Average area (percent of lisuride peak area relative to total peak area) ([4]; citrate buffer pH 4.5, 25° C., t 180 d): 95.90%
Average area (percent of lisuride peak area relative to total peak area) ([4]; citrate buffer pH 4.5, 40° C., t 0 d): 99.79%
Average area (percent of lisuride peak area relative to total peak area) ([4]; citrate buffer pH 4.5, 40° C., t 7 d): 98.82%
Average area (percent of lisuride peak area relative to total peak area) ([4]; citrate buffer pH 4.5, 40° C., t 30 d): 94.96%
Average area (percent of lisuride peak area relative to total peak area) ([4]; citrate buffer pH 4.5, 40° C., t 90 d): 90.39%
Average area (percent of lisuride peak area relative to total peak area) ([4]; citrate buffer pH 4.5, 40° C., t 180 d): 87.71%
Average area (percent of lisuride peak area relative to total peak area) ([4]; citrate buffer pH 5.1, 6-8° C., t 0 d): 100.00%
Average area (percent of lisuride peak area relative to total peak area) ([4]; citrate buffer pH 5.1, 6-8° C., t 7 d): 99.90%
Average area (percent of lisuride peak area relative to total peak area) ([4]; citrate buffer pH 5.1, 6-8° C., t 30 d): 99.72%
Average area (percent of lisuride peak area relative to total peak area) ([4]; citrate buffer pH 5.1, 6-8° C., t 90 d): 99.59%
Average area (percent of lisuride peak area relative to total peak area) ([4]; citrate buffer pH 5.1, 6-8° C., t 180 d): 99.29%
Average area (percent of lisuride peak area relative to total peak area) ([4]; citrate buffer pH 5.1, 25° C., t 0 d): 100.00%
Average area (percent of lisuride peak area relative to total peak area) ([4]; citrate buffer pH 5.1, 25° C., t 7 d): 99.79%
Average area (percent of lisuride peak area relative to total peak area) ([4]; citrate buffer pH 5.1, 25° C., t 30 d): 99.36%
Average area (percent of lisuride peak area relative to total peak area) ([4]; citrate buffer pH 5.1, 25° C., t 90 d): 98.64%
Average area (percent of lisuride peak area relative to total peak area) ([4]; citrate buffer pH 5.1, 25° C., t 180 d): 95.45%
Average area (percent of lisuride peak area relative to total peak area) ([4]; citrate buffer pH 5.1, 40° C., t 0 d): 100.00%
Average area (percent of lisuride peak area relative to total peak area) ([4]; citrate buffer pH 5.1, 40° C., t 7 d): 98.86%
Average area (percent of lisuride peak area relative to total peak area) ([4]; citrate buffer pH 5.1, 40° C., t 30 d): 94.71%
Average area (percent of lisuride peak area relative to total peak area) ([4]; citrate buffer pH 5.1, 40° C., t 90 d): 90.99%
Average area (percent of lisuride peak area relative to total peak area) ([4]; citrate buffer pH 5.1, 40° C., t 180 d): 87.98%
decomposition of the active ingredient ([4]; citrate-buffered (pH 5.1, 4.5, 3.5), room temperature, within 180 days): 5%
decomposition of the active ingredient ([4]; citrate-buffered, storage at 40° C.): up to 30%
decomposition of the active ingredient ([4]; citrate-buffered, storage under refrigeration): approximately 0.7%
discoloration of the solutions ([4]; citrate-buffered, stored at 40° C.): significant yellow discoloration after only 30 days, turning brown after another 60 days

CCN(CC)C(=O)N[C@H]1C=C2c3cccc4[nH]cc(c34)C[C@H]2N(C)C1 [lisuride]
solubility (estimated) ([5]; free lisuride, calculated from solubility data of active ingredients/salts (Zimmermann 1983)): ~2.2 mg/100 mL

CC(O)CO (centres unmarked) [propylene glycol, 1,2-propanediol (propylene glycol)]
estimated amount acceptable as a daily oral dose [6]: 25 mg/kg body weight

CCCN1C[C@@H](NC(=O)N(CC)CC)C[C@@H]2c3cccc4[nH]cc(c34)C[C@H]21 [proterguride]
solubility ([5]; free compound, phosphate-buffered solution (pH 7.4)): 2.6 mg/100 mL
solubility in water relative to lisuride ([5]; water): comparable to that of lisuride
